Laboratory results taken from PMC5908784, “Extracellular loops 2 and 3 of the calcitonin receptor selectively modify agonist binding and efficacy” (Biochemical Pharmacology, 2018).
Changes are numbered by the printed parent chain. Where no end group is shown, it is not given here.

Legend:
Test in all cases: Homologous whole cell competition binding
Conditions in all cases: homologous competition of 125I-sCT(8-32), whole cells, mean ± S.E.M., SEM
hCTR T295A = target: T1, hCTR T295A (Homo sapiens, UniProt P30988, T295A)
T1 construct: c-Myc (N); expressed in transfected cells
T1 sequence (P30988 25-474 T295A): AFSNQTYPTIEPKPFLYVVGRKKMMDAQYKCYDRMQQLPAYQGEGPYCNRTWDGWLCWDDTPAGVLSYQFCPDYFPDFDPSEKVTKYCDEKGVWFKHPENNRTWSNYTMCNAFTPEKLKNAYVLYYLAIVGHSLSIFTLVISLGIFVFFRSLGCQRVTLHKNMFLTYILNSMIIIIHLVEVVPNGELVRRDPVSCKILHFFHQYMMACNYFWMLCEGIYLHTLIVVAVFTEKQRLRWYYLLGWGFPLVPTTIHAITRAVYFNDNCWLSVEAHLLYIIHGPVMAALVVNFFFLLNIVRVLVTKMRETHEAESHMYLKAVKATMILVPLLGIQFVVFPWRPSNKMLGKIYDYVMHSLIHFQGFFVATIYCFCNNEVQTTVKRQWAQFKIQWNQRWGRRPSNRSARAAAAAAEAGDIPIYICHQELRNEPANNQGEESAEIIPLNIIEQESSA
Outline: (§1)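 Values are pKi, derived from IC50 of unlabelled sCT(8-32) displacing ^125I-sCT(8-32) (25–100 pM) from whole cells after overnight incubation at 4 °C. Specific binding was scaled between tracer-only total and 1 μM cold-peptide background.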

hCTR S292A = target: T2, hCTR S292A (Homo sapiens, UniProt P30988, S292A)
T2 construct: expressed in transfected cells
T2 sequence (P30988 25-474 S292A): T1 sequence (P30988 25-474 T295A) with S268A, A271T
Outline: as §1

hCTR M367A = target: T3, hCTR M367A (Homo sapiens, UniProt P30988, M367A)
T3 construct: c-Myc (N); expressed in transfected cells
T3 sequence (P30988 25-474 M367A): T1 sequence (P30988 25-474 T295A) with A271T, M343A
Outline: as §1

hCTR W361A = target: T4, hCTR W361A (Homo sapiens, UniProt P30988, W361A)
T4 construct: expressed in transfected cells
T4 sequence (P30988 25-474 W361A): T1 sequence (P30988 25-474 T295A) with A271T, W337A
Outline: as §1

Ki (hCTR T295A): 50.1 pM
Ki (hCTR S292A): 63.1 pM
Ki (hCTR M367A): 295 pM
Ki (hCTR W361A): 282 pM
Substance: VLGKLSQELHKLQTYPRTNTGSGTP-NH2 [sCT(8-32)]
